Experimental data as given in BindingDB's records for doi:10.3109/14756366.2012.670806 (Jeju National University, 2013).

Target: T1, Polyphenol oxidase 1 (White button mushroom, UniProt Q00024)
T1 sequence (Q00024 whole entry): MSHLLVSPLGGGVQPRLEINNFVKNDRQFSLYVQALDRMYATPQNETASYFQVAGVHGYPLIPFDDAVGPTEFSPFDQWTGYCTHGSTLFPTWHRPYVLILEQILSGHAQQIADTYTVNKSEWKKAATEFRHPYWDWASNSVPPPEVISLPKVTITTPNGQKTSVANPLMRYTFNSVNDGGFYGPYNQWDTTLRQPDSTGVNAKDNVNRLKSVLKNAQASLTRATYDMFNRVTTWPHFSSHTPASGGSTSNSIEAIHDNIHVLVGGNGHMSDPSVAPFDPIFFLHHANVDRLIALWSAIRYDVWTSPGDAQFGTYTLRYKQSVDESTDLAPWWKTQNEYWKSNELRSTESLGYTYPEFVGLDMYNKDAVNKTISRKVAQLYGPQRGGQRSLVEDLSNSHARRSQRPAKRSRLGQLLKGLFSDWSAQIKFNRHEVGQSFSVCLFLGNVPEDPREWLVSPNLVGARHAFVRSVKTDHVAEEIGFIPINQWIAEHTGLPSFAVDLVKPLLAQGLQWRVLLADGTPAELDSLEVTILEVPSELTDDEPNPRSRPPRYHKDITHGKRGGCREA
Test: Tyrosinase Inhibition Assay
Settings: pH 6.8; 37 °C
Procedure: Briefly, mushroom tyrosinase (1250 units/mL) and 2 mM L-tyrosine (0.07 mL) were added to a solution of phosphate buffer (0.1 M, pH 6.8, 0.09 mL) containing the test sample. The test mixture (0.2 mL) was incubated for 10 min at 37°C and the absorption due to the formation of dopachrome was monitored at 475 nm. The same mixture except for the plant extract was used as a control. Arbutin (hydroquinone-O-β-glucopyranoside) was used as a positive control. Each treatment was replicated three times.

Row | IC50 [µM] | Compound
1 | 67 | CC1OC(Oc2c(-c3ccc(O)cc3)oc3cc(O)cc(O)c3c2=O)C(OC(=O)/C=C/c2ccc(O)cc2)C(OC(=O)/C=C/c2ccc(O)cc2)C1O (stereo not drawn) [Neolitsea aciculata extract, 5]
2 | 80 | CC1OC(Oc2c(-c3ccc(O)cc3)oc3cc(O)cc(O)c3c2=O)C(OC(=O)/C=C/c2ccc(O)cc2)C(O)C1O (stereo not drawn) [Neolitsea aciculata extract, 6]
3 | 320 | OC[C@H]1O[C@@H](Oc2ccc(O)cc2)[C@H](O)[C@@H](O)[C@@H]1O [4-hydroxyphenyl beta-D-glucopyranoside]
